Measurements as given in PubChem BioAssay AID179 (DTP/NCI, 2004).
Activity calls are given as the source filed them.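 Rule for the calls: active = compounds giving half or more protection of infected cells from virus-caused growth loss, again on retest; inactive = the rest.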 *1 amine or outer side, *2 acyl side, *3 side chain or, on linkers, in order; H or OH if unused. Where a SMILES comes first, the peptide text is derived from it. Bridges are numbered along the chain shown (N, C = ends). [ ]: non-standard residue; d: D form. The star is where a group is joined. X22 = CC(C)C(C)C(C(=O)[*:2])N(C)[*:1]; Picolinoyl(3-OH) = O=C(c1ncccc1O)*; NMePhg = CN[CH](C(=O)O)c1ccccc1; Hyp = O=C(O)[CH]1C[CH](O)CN1; Sar = CNCC(=O)O

Test system: CEM cells HIV-1 protection, formazan growth assay
Experiment: NCI AIDS Antiviral Assay
Details: for IC50: measured here: growth of uninfected CEM cells
Summary of the method: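 Steps: treat uninfected and HIV-1-infected human CEM cells at five drug levels; quantify growth by soluble formazan; retest any compound reaching 50% protection; classify actives from the retest.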

Row | SMILES | EC50 | IC50 | outcome
1 | CC1(C)OC(=O)C2C3C=CC(C2C(=O)O)C31 (stereo not drawn) | > 1120 µM | > 1120 µM | 
2 | COCn1c2ccc(OC(C)=O)cc2c2c(=O)oc(N(C)C)nc21 | > 200 µM | > 200 µM | 
3 | CCOC(=N)CC(=O)Nc1ccccc1 | > 40.7 µM | > 40.7 µM | 
4 | CC1=C(C(=O)NNC(=O)Cc2ccccc2)CC(C(=O)NNC(=O)Cc2ccccc2)=C(C)N1 | > 200 µM | 36.3 µM | 
5 | OCC1C(O)C(O)[C@@H]2SCCN12 (stereo partly drawn) | > 200 µM | > 200 µM | 
6 | O=C1c2c(O)cccc2C(C(=O)CCCCC(=O)C2c3cccc(O)c3C(=O)c3c(O)cccc32)c2cccc(O)c21 | > 6.76 µM | > 6.76 µM | 
7 | CCOC(=O)/C=C(/C)Nc1nc2c(c(C(=O)OC)c1C#N)CCCC2 | > 200 µM | > 200 µM | 
8 | CC(C)CC1NC(=O)C(NC(=O)c2ncccc2O)C(C)OC(=O)C(c2ccccc2)N(C)C(=O)C(C)NC(=O)C(C(C)C(C)C)N(C)C(=O)CN(C)C(=O)C2CC(O)CN2C1=O (stereo not drawn) ({Picolinoyl(3-OH)}-TL[Hyp][Sar][X22]A[NMePhg]; ester 1-C; configuration not given here) |  |  | inactive
9 | CCOC(=O)C(=O)N=Nc1c(O)[nH]c2ccccc12 | > 200 µM | > 200 µM | 
10 | Cc1nn(C(=O)c2ccccc2O)c2c1C(c1ccccc1O)SC(N)=N2 (stereo not drawn) | > 2 µM | 0.933 µM | 
11 | CCCC(S(=O)(=O)c1ccccc1)S(=O)(=O)c1ccccc1 |  |  | inactive
12 | CC1(C)C(=O)N2CCSC21 (stereo not drawn) | > 16.6 µM | > 16.6 µM | 
13 | CN(C)CCCn1cnc2ncccc2c1=O |  |  | inactive
14 | COC(=O)C1C=CCC2CCCCC21N1CCCC1 (stereo not drawn) |  |  | inactive
15 | C=C1C(=O)OC2CC(C)C3CC(OC)OC(OC)C3(C)CC12 (stereo not drawn) | > 589 µM | 3.72 µM | 
16 | C=C(Br)N(CC)CC | > 251 µM | > 251 µM | 
17 | Cc1cnc(NCCCN(C)C)c2c1[nH]c1ccc3ccccc3c12 | > 2 µM | 0.316 µM | 

Row | SMILES | EC50 | IC50 | outcome
18 | CC1(C)O[C@@H](CCl)C[C@H](C#N)O1 | > 200 µM | > 200 µM | 
19 | CC(=O)O[C@H]1C=CC23OC(=O)[C@]1(C)[C@H]2[C@H](C(=O)O)C12CC(=O)[C@@](CO)(CC[C@H]13)C2 |  |  | inactive
20 | CCc1c(Cc2ccccc2)n(COCCO)c(=O)[nH]c1=O | 9.55 µM | > 200 µM | 
21 | CS(=O)(=O)NNS(=O)(=O)c1ccc(Cl)cc1 | > 126 µM | > 126 µM | 
22 | CCOC(=O)c1cc(-c2ccn(C(C)=O)c2)c(-c2cc(C)co2)[nH]1 | 18.2 µM | > 200 µM | 
23 | Clc1cc2nnn(C3CCCO3)c2cc1Cl (stereo not drawn) | > 200 µM | 123 µM | 
24 | Oc1ccc2ccccc2c1C=Nc1ccc(SSc2ccc(N=Cc3c(O)ccc4ccccc34)cc2)cc1 | > 200 µM | 30.2 µM | 
25 | COC(=O)CC1C(C(C)(OC)OC)C(=O)N1[Si](C)(C)C(C)(C)C (stereo not drawn) | > 363 µM | > 363 µM | 
26 | COc1ccc(/C(C)=N/NC(N)=S)cc1OC |  |  | inactive
27 | Cn1cc(NC(=O)c2nc(NC(=O)c3nc(NC(=O)c4ccc(C(=O)Nc5cn(C)c(C(=O)Nc6cn(C)c(C(=O)Nc7cn(C)c(C(=O)NCCC(=N)N)n7)n6)n5)nc4)cn3C)cn2C)nc1C(=O)NCCC(=N)N | > 50.1 µM | 1.17 µM | 
28 | Cc1cc(C)c(NS(=O)c2cccc([N+](=O)[O-])c2)c(C)c1 (stereo not drawn) | > 30.9 µM | > 30.9 µM | 
29 | CN1CCN(C(=O)c2cccc3cccc(C(=O)O)c23)CC1 | > 832 µM | 724 µM | 
30 | Cn1nc(-c2ccc3c(c2)OCO3)[n+]([O-])c2c(=O)n(C)c(=O)nc1-2 | > 200 µM | 0.38 µM | 
31 | O=C(Nc1ccc(Sc2ccc(N=Nc3c(O)c(S(=O)(=O)O)cc4cc(S(=O)(=O)O)ccc34)cc2)cc1)c1ccc(N=Nc2cc(S(=O)(=O)O)c3ccccc3c2O)cc1 |  |  | inactive
32 | CCOC(=O)Cc1[nH]c(C(=O)c2ccccc2)cc1C(=O)c1ccccc1 | > 200 µM | 30.2 µM | 
33 | C1=C(N2CCOCC2)N(c2ccccc2)c2ccccc2N=C1N1CCCC1 |  |  | inactive
